Legend:
[1] = biological target: A-Raf kinase (SEQ. ID No: 1) (Homo sapiens (Human), UniProt P10398, Y301D/Y302D); assay: Biochemical Assay for A-Raf (2); details: Table J, biochemical assay (2); read-out: ARAF (2)
Protocol: Biochemical Assay for A-Raf (2)
(§1) Activity of A-Raf kinase (SEQ. ID No: 1) was determined spectroscopically using a coupled pyruvate kinase/lactate dehydrogenase assay that continuously monitors the ATP hydrolysis-dependent oxidation of NADH (e.g., Schindler et al., Science, 2000, 289, 1938-1942). Assays were conducted in 384-well plates (25 μL final volume) using 20 nM A-Raf (Eurofins), 1.5 units pyruvate kinase, 2.1 units lactate dehydrogenase, 1 mM phosphoenol pyruvate, 0.7 mM NADH, 100 nM MEK (SignalChem), and 1 mM ATP in assay buffer (100 mM Tris, pH 7.5, 15 mM MgCl2, 0.5 mM DTT, 0.1% octyl-glucoside, 0.002% (w/v) BSA, and 0.002% Triton X-100). Inhibition of A-Raf was measured by adding serial diluted test compound (final assay concentration of 1% DMSO). A decrease in absorption at 340 nm was monitored hourly for 4 h at 30° C. on a multi-mode microplate reader (BioTek). The reaction rate was calculated using the 3 to 4 h time frame. The reaction rate at each concentration of compound was converted to percent inhibition using controls (i.e., reaction with no test compound and reaction with a known inhibitor) and IC50 values were calculated by fitting a four-parameter sigmoidal curve to the data using Prism (GraphPad software).

[2] = biological target: B-Raf (V600E) (SEQ. ID NO: 4) kinase (Homo sapiens (Human), UniProt P15056, V600E); assay: Biochemical Assay for B-Raf (V600E) (2); details: Table J, BRAF V600E, biochemical assay (2); read-out: BRAF VE (2)
Sequence of B-Raf (V600E) (SEQ. ID NO: 4) kinase (P15056 416-766 V600E): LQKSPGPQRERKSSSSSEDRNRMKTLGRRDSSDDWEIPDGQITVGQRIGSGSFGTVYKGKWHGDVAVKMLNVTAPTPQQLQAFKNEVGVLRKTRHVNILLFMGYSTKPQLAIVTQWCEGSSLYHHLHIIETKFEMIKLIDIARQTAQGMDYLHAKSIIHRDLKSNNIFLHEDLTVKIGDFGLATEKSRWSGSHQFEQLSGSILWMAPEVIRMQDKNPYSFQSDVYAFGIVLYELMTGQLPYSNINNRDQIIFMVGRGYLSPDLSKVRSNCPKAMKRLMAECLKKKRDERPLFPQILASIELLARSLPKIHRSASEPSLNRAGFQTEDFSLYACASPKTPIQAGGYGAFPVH
Protocol: Biochemical Assay for B-Raf (V600E) (2)
as §1, with “of B-Raf (V600E)” for “of A-Raf kinase”, “ID NO: 4) kinase” for “ID No: 1)”, “using 0.5” for “using 20”, “nM B-Raf (deCode),” for “nM A-Raf (Eurofins),”, “of B-Raf (V600E)” for “of A-Raf”

A375 cells = assay: A375 Cell Proliferation Assay (2); assay type: cell-based; details: Homo sapiens, A-375
Protocol: A375 Cell Proliferation Assay (2)
A375 cells (catalog (#CRL-1619) are obtained from the American Type Culture Collect (ATTC, Manassas, VA). Briefly, cells were grown in DMEM High Glucose supplemented with 10% characterized fetal bovine serum (Invitrogen, Carlsbad, CA) and 1% Penicillin/Streptomycin/L-Glutamine at 37° C., 5% CO2, and 95% humidity. Cells are expanded until reaching 70-95% confluency at which point they are sub-cultured or harvested for assay use. Using the Beckman Coulter Echo 650, a serial dilution of test compound is dispensed into a 384-well black clear bottom plate in triplicate. Six hundred twenty-five cells are added per well in 50 μL complete growth medium in the 384-well plate. Plates are incubated for 67-72 h at 37° C., 5% CO2, and 95% humidity. At the end of the incubation, 10 μL of a 440 μM solution of resazurin (Sigma, St. Louis, MO) in PBS is added to each well of the plate and plates are incubated for an additional 3-6 h at 37° C., 5% CO2, and 95% humidity. Plates are read on a Synergy2 or equivalent reader (Biotek, Winooski VT) using an excitation of 540 nm and an emission of 600 nm. Data is analyzed using Prism software (GraphPad, San Diego, CA) to calculate IC50 values.

WM3928 cells = assay: WM3928 Cell Proliferation Assay (2); assay type: cell-based
Protocol: WM3928 Cell Proliferation Assay (2)
WM3928 cells (#WM3928-01-0001) are obtained from Rockland Immunochemicals Inc (Gilbertsville, PA). Briefly, cells were grown in MCDB 153 medium (Sigma, #M7403, St. Louis, MO) supplemented with 20% Leibovitz's L-15 (ThermoFisher #11415-064, Waltham, MA), 2% heat inactivated fetal bovine serum (ThermoFisher, #A3840001, Waltham, MA), 5 μg/mL Insulin (Bovine Pancreas) (Sigma, #10516, St. Louis, MO), 1.68 mM Calcium Chloride (Sigma, #C-34006, St. Louis, MO) and 1% Penicillin/Streptomycin/L-Glutamine (ThermoFisher #10378016, Waltham, MA) at 37° C., 5% CO2, and 95% humidity. Cells are expanded until reaching 70-95% confluency at which point they are sub-cultured or harvested for assay use. Using the Beckman Coulter Echo 650, a serial dilution of test compound is dispensed into a 384-well black clear bottom plate in triplicate. Seven hundred fifty cells are added per well in 50 μL complete growth medium in the 384-well plate. Plates are incubated for 67-72 hours at 37° C., 5% CO2, and 95% humidity. At the end of the incubation, 10 μL of a 440 μM solution of resazurin (Sigma, #199303, St. Louis, MO) in PBS is added to each well of the plate and plates are incubated for an additional 3-6 hours at 37° C., 5% CO2, and 95% humidity. Plates are read on a Synergy2 or equivalent reader (Biotek, Winooski VT) using an excitation of 540 nm and an emission of 600 nm. Data is analyzed using Prism software (GraphPad, San Diego, CA) to calculate IC50 values.

Sequence of A-Raf kinase (SEQ. ID No: 1) (P10398 other isoform, or with tags, fused parts or gaps Y301D (already in the parent)/Y302D (already in the parent)): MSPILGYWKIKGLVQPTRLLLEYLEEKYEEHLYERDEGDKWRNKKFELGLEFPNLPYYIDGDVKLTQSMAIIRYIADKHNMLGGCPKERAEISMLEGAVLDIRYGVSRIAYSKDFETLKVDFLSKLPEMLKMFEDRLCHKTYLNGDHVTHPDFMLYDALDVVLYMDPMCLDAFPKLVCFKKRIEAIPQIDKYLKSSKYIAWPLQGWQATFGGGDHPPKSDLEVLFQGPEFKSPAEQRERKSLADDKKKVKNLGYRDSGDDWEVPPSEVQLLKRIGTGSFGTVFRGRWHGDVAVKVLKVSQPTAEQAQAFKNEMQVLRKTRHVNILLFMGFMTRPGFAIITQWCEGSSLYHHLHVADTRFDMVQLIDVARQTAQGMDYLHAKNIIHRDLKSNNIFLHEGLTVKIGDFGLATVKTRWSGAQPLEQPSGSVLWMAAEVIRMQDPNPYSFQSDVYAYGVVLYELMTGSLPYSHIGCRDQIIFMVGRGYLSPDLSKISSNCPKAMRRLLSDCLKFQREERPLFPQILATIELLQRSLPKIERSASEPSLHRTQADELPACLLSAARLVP

| Compound | IC50 [1] | IC50 [2] | IC50 (A375 cells) | IC50 (WM3928 cells) |
| --- | --- | --- | --- | --- |
| CNC(=O)c1cc(-c2cc(-c3cc(NC(=O)c4ccnc(C(C)(C)F)c4)ccc3Cl)ccn2)ccn1 [Example 485] | 1000 to 10000 nM | ≤ 100 nM | ≤ 100 nM | ≤ 100 nM |
| Cc1ccc(NC(=O)c2ccnc(C(C)(C)F)c2)cc1-c1cnnc(-c2ccnc(C(N)=O)c2)c1 [Example 486] | 1000 to 10000 nM | ≤ 100 nM | 100 to 500 nM | 100 to 500 nM |
| CNC(=O)c1cc(-c2cc(-c3cc(NC(=O)c4ccnc(C5(F)CC5)c4)ccc3C)ccn2)ccn1 [Example 487] | 100 to 500 nM | ≤ 100 nM | ≤ 100 nM | ≤ 100 nM |
| Cc1ccc(NC(=O)c2ccnc(C(C)(C)F)c2)cc1-c1cc(-c2ccnc(C(N)=O)c2)ncn1 [Example 488] | 500 to 1000 nM | ≤ 100 nM | 100 to 500 nM | 100 to 500 nM |
| [2H]C([2H])([2H])NC(=O)c1cc(-c2cc(-c3cc(NC(=O)c4ccnc(C(C)(C)F)c4)ccc3C)ccn2)ccn1 [Example 489] | 100 to 500 nM | ≤ 100 nM | ≤ 100 nM | ≤ 100 nM |
| Cc1ccc(NC(=O)c2ccnc(C(C)(C)F)c2)cc1-c1cc(-c2ccnc(C(N)=O)c2)ncc1F [Example 490] | 1000 to 10000 nM | ≤ 100 nM | 100 to 500 nM | 100 to 500 nM |
| CC(C)(F)c1cc(C(=O)Nc2ccc(F)c(-c3ccnc(-c4ccnc(C(N)=O)c4)c3)c2)ccn1 [Example 491] | 1000 to 10000 nM | ≤ 100 nM | 1000 to 10000 nM | 500 to 1000 nM |
| CNC(=O)c1cc(-c2cc(-c3cc(NC(=O)c4cnnc(C(C)(F)F)c4)ccc3C)ccn2)ccn1 [Example 492] | 1000 to 10000 nM | ≤ 100 nM | 100 to 500 nM | 100 to 500 nM |
| [2H]C([2H])([2H])NC(=O)c1cc(-c2cc(-c3cc(NC(=O)c4ccnc(C(C)(C)F)c4)ccc3C)cc(C)n2)ccn1 [Example 493] | 1000 to 10000 nM | ≤ 100 nM | ≤ 100 nM | ≤ 100 nM |
| CNC(=O)c1cc(-c2cc(-c3cc(NC(=O)c4ccnc(C(C)(C)F)n4)ccc3C)ccn2)ccn1 [Example 494] | 1000 to 10000 nM | ≤ 100 nM | 1000 to 10000 nM | 500 to 1000 nM |
| CNC(=O)c1cc(-c2cc(-c3cc(NC(=O)c4cnnc(C(C)(C)F)c4)ccc3C)ccn2)ccn1 [Example 495] | 500 to 1000 nM | ≤ 100 nM | ≤ 100 nM | ≤ 100 nM |
| CNC(=O)c1cc(-c2cc(-c3cc(NC(=O)c4ccnc(C5(F)CC5)c4)ccc3C)cc(C)n2)ccn1 [Example 496] | 1000 to 10000 nM | ≤ 100 nM | ≤ 100 nM | ≤ 100 nM |
| CNC(=O)c1cc(-c2cc(-c3cc(NC(=O)c4ccnc(C(C)(C)F)c4)c(F)cc3C)ccn2)ccn1 [Example 497] | 1000 to 10000 nM | ≤ 100 nM | 100 to 500 nM | 100 to 500 nM |
| [2H]C([2H])([2H])NC(=O)c1cc(-c2cc(-c3cc(NC(=O)c4ccnc(C5(F)CC5)c4)ccc3C)cc(C)n2)ccn1 [Example 498] | 1000 to 10000 nM | ≤ 100 nM | 100 to 500 nM | ≤ 100 nM |
| CNC(=O)c1cc(-c2cc(-c3cc(NC(=O)c4ccnc(C(C)(C)F)c4)ncc3C)ccn2)ccn1 [Example 499] | 1000 to 10000 nM | ≤ 100 nM | ≤ 100 nM | 100 to 500 nM |
| Cc1ccc(NC(=O)c2cn(C)nc2C(F)(F)F)cc1-c1cncc(-c2ccnc(NC(=O)C3CC3)c2)c1 [Example 500] | 1000 to 10000 nM | ≤ 100 nM | 1000 to 10000 nM | 500 to 1000 nM |
| Cc1ccc(NC(=O)c2ccc(C(F)(F)F)cc2)cc1-c1ccnc(-c2ccnc(NC(=O)C3CC3)c2)c1 [Example 501] | 1000 to 10000 nM | 100 to 500 nM | 100 to 500 nM | 100 to 500 nM |
| Cc1ccc(NC(=O)c2cccc(C(F)(F)F)c2)cc1-c1ccnc(-c2ccnc(NC(=O)C3CC3)c2)c1 [Example 502] | 100 to 500 nM | ≤ 100 nM | ≤ 100 nM | ≤ 100 nM |
| Cc1ccc(NC(=O)c2cc(C(F)(F)F)ccc2F)cc1-c1ccnc(-c2ccnc(NC(=O)C3CC3)c2)c1 [Example 503] | 100 to 500 nM | ≤ 100 nM | 100 to 500 nM | ≤ 100 nM |

— US12319655B2, “RAF kinase inhibitors and methods of use thereof” (Deciphera Pharmaceuticals, LLC, priority 2021, dated 2025)
